In the oligonucleotide strings, read from the 5' end, every base follows the letter of its sugar. An asterisk marks phosphorothioate; unmarked linkages are phosphodiester. Other units and linkages are bracketed, terminal groups are in braces. A string of capitals states the bases alone. e = 2'-O-(2-methoxyethyl) (MOE); [5mC] = 5-methylcytosine; d = 2'-deoxy (DNA)

21 substances from patent US8178506B2, “Oligomeric compounds and compositions for use in modulation of small non-coding RNAs” (Regulus Therapeutics Inc., priority 2003, dated 2012) can be followed below.

The subject of one data set is PEPCK-c. Nature of the data set: PEPCK-c mRNA expression in HepG2 cells. It counts as cell-based, human. Conditions: for PEPCKc mRNA expression: Experiment 2, insulin treated: HepG2 cells transfected with oligomeric compound, 1 nM insulin for four hours, UTC + 1 nM insulin = 100; for PEPCKc mRNA: four hours, UTC = 100.
In another data set the test system is follistatin. Nature of the data set: Follistatin mRNA expression in HepG2 cells. It counts as cell-based, human. As to conditions: for Follistatin mRNA expression: Experiment 2, insulin treated: HepG2 cells transfected with oligomeric compound, 1 nM insulin for four hours, UTC + 1 nM insulin = 100; for Follistatin mRNA: four hours, UTC = 100.
In a further data set the test system is IL-12 mRNA. Nature of the data set: IL-12 mRNA in LPS-activated primary murine macrophages. The data set is classed as cell-based, mouse. As to conditions: normalized to LPS-treated cells without oligomeric compound; for IL-12 mRNA expression, −IFN % UTC: 300 nM oligomeric compound and LPS, no IFN-gamma pretreatment, single experiment; for IL-12 mRNA expression, +IFN % UTC: 300 nM oligomeric compound, stimulation with IFN-gamma and LPS, average of 2 experiments.

Setting [1] is: HepG2 cells, Experiment 1, basal (no insulin).
The mark [2] stands for this setting: Experiment 3, basal (no insulin), HepG2 cells, 48 hours post-transfection.
[3] abbreviates: Experiment 4, insulin-sensitization: HepG2 cells treated with 1 nM insulin for four hours, 48 h post-transfection, mRNA by real-time PCR.
Setting [4] is: Experiment 1, basal (no insulin), HepG2, 100 nM oligomeric compound.
Where [5] appears, read: Experiment 2, 1 nM insulin treated, HepG2, 100 nM oligomeric compound.

Take “327920 (antisense eG*eA*eG*eA*e[5mC]*e[5mC]*e[5mC]*eA*eG*eT*eA*eG*e[5mC]*e[5mC]*eA*eG*eA*eT*eG*eT*eA*eG*e[5mC]*eT) [compound 327920]”: the “PEPCKc mRNA expression” value in the data set with PEPCK-c turned out to be 59. Besides, the “PEPCKc mRNA” value with PEPCK-c (setting [1]) is 52. Moreover, the “Follistatin mRNA expression” value with follistatin was determined as 102. The “Follistatin mRNA” value with follistatin (setting [1]) was 99. Besides, in the data set with IL-12 mRNA, the “IL-12 mRNA expression, −IFN % UTC” value amounted to 171 % UTC and the “IL-12 mRNA expression, +IFN % UTC” value is listed as 68 % UTC.

On to “327887 (antisense eG*e[5mC]*eG*eA*e[5mC]*e[5mC]*eA*eT*eG*eG*e[5mC]*eT*eG*eT*eA*eG*eA*e[5mC]*eT*eG*eT*eT*eA) [compound 327887]”, for which, in the data set with PEPCK-c (setting [1]), the “PEPCKc mRNA” value was 83. Further, the “Follistatin mRNA” value in the data set with follistatin (setting [1]) was determined as 113. Besides, in the data set with IL-12 mRNA, the “IL-12 mRNA expression, −IFN % UTC” value came to 287 % UTC and the “IL-12 mRNA expression, +IFN % UTC” value is listed as 33 % UTC.

For the substance “327911 (antisense eG*e[5mC]*eT*eA*e[5mC]*e[5mC]*eT*eG*e[5mC]*eA*e[5mC]*eT*eG*eT*eA*eA*eG*e[5mC]*eA*e[5mC]*eT*eT*eT*eT) [compound 327911]”, the “PEPCKc mRNA expression” value in the data set on PEPCK-c was determined as 78. Moreover, in the data set with PEPCK-c (setting [1]), the “PEPCKc mRNA” value is reported as 52. For the same substance, the “Follistatin mRNA expression” value with follistatin is recorded as 71. The “Follistatin mRNA” value in the data set on follistatin (setting [1]) amounted to 81.

“341805 (antisense ACCCTTATCAGTTCTCCGTCCA; all 2'-MOE, all phosphorothioate, methylation of C not given here) [compound 341805]”: the “PEPCKc mRNA” value in the data set on PEPCK-c (setting [1]) is 40. For the same substance, in the data set with follistatin (setting [1]), the “Follistatin mRNA” value amounted to 63.

Turning to “328691 (e[5mC]*e[5mC]*e[5mC]*e[5mC]*eA*dT*d[5mC]*dT*dT*dA*dG*d[5mC]*dA*dT*d[5mC]*eT*eA*eA*eG*eG) [compound 328691]”, the “PEPCK-c (% UTC)” value worked out at 108 % UTC in the data set on PEPCK-c (setting [2]) and 97 % UTC with PEPCK-c (setting [3]). For the same substance, the results for the “Follistatin (% UTC)” value with follistatin (setting [2]) and with follistatin (setting [3]) were 93 % UTC and 104 % UTC, respectively.

As to “341807 (antisense CTGGGACTTTGTAGGCCAGTT; all 2'-MOE, all phosphorothioate, methylation of C not given here) [compound 341807]”, the “PEPCKc mRNA” value in the data set on PEPCK-c (setting [1]) came out at 97. Also, the “Follistatin mRNA” value with follistatin (setting [1]) is 102.

As to “328759 (antisense eG*eA*eG*eG*eG*dA*dT*dT*dG*dT*dA*dT*dG*dA*dA*e[5mC]*eA*eT*e[5mC]*eT) [compound 328759]”, the “PEPCK-c (% UTC)” value with PEPCK-c (setting [2]) amounted to 98 % UTC; in the data set with PEPCK-c (setting [3]) it was 92 % UTC. Besides, the “Follistatin (% UTC)” value is 266 % UTC in the data set on follistatin (setting [2]) and 224 % UTC with follistatin (setting [3]).

“327885 (antisense eA*e[5mC]*eT*eA*e[5mC]*e[5mC]*eT*eG*e[5mC]*eA*e[5mC]*eT*eG*eT*eA*eA*eG*e[5mC]*eA*e[5mC]*eT*eT*eT*eG) [compound 327885]”: the “PEPCKc mRNA” value in the data set with PEPCK-c (setting [1]) was 73. Also, the “Follistatin mRNA” value with follistatin (setting [1]) came to 74.

For “327897 (antisense eA*e[5mC]*eA*eG*eG*e[5mC]*e[5mC]*eG*eG*eG*eA*e[5mC]*eA*eA*eG*eT*eG*e[5mC]*eA*eA*eT*eA) [compound 327897]”, in the data set on PEPCK-c, the “PEPCKc mRNA expression” value is 78. The “PEPCKc mRNA” value in the data set with PEPCK-c (setting [1]) is listed as 72. The “Follistatin mRNA expression” value in the data set on follistatin is reported as 123. For the same substance, the “Follistatin mRNA” value in the data set with follistatin (setting [1]) is listed as 129.

“327918 (antisense e[5mC]*eT*eA*eG*eT*eA*e[5mC]*eA*eT*e[5mC]*eA*eT*e[5mC]*eT*eA*eT*eA*e[5mC]*eT*eG*eT*eA) [compound 327918]”: the “PEPCKc mRNA expression” value with PEPCK-c was 107. Besides, the “PEPCKc mRNA” value in the data set with PEPCK-c (setting [1]) turned out to be 81. The “Follistatin mRNA expression” value in the data set with follistatin was 76. Besides, the “Follistatin mRNA” value in the data set with follistatin (setting [1]) was 75.

For the substance “327886 (antisense e[5mC]*eG*e[5mC]*eG*eT*eA*e[5mC]*e[5mC]*eA*eA*eA*eA*eG*eT*eA*eA*eT*eA*eA*eT*eG) [compound 327886]”, the “PEPCKc mRNA” value in the data set on PEPCK-c (setting [1]) is listed as 61. Further, in the data set with follistatin (setting [1]), the “Follistatin mRNA” value worked out at 82.

As to “328685 (e[5mC]*eG*eG*e[5mC]*e[5mC]*dG*dG*dA*dG*d[5mC]*d[5mC]*dA*dT*dA*dG*eA*e[5mC]*eT*e[5mC]*eG; antisense) [compound 328685]”, the “PEPCK-c (% UTC)” value in the data set on PEPCK-c (setting [2]) is reported as 219 % UTC; in the data set on PEPCK-c (setting [3]), 184 % UTC. Also, the “Follistatin (% UTC)” value is given as 100 % UTC in the data set on follistatin (setting [2]) and 157 % UTC in the data set on follistatin (setting [3]).

“327892 (antisense eA*e[5mC]*eT*eT*eT*e[5mC]*eG*eG*eT*eT*eA*eT*e[5mC]*eT*eA*eG*e[5mC]*eT*eT*eT*eA) [compound 327892]”: the figures for the “PEPCK-c (% UTC)” value with PEPCK-c (setting [4]) and with PEPCK-c (setting [5]) were 75 % UTC and 104 % UTC, respectively. Besides, the “Follistatin (% UTC)” value in the data set with follistatin (setting [4]) was 91 % UTC; in the data set with follistatin (setting [5]), 96 % UTC.

In the case of “338664 (antisense e[5mC]*eA*eG*eA*e[5mC]*eT*e[5mC]*e[5mC]*e[5mC]*eA*eA*e[5mC]*eT*eG*eA*e[5mC]*e[5mC]*eA*eG*eA) [compound 338664]”, the figures for the “PEPCK-c (% UTC)” value in the data set with PEPCK-c (setting [4]) and with PEPCK-c (setting [5]) were 75 % UTC and 76 % UTC, respectively. Also, the “Follistatin (% UTC)” value is 93 % UTC in the data set on follistatin (setting [4]) and 84 % UTC in the data set on follistatin (setting [5]).

With “341804 (antisense ATCTGCACTGTCAGCACTTT; all 2'-MOE, all phosphorothioate, methylation of C not given here) [compound 341804]”, in the data set on PEPCK-c (setting [1]), the “PEPCKc mRNA” value is reported as 44. Also, the “Follistatin mRNA” value in the data set with follistatin (setting [1]) is 63.

For the substance “328677 (eT*e[5mC]*e[5mC]*eT*eG*dG*dA*dT*dG*dA*dT*dA*dT*d[5mC]*dT*eA*e[5mC]*e[5mC]*eT*e[5mC]; antisense) [compound 328677]”, the results for the “PEPCK-c (% UTC)” value in the data set with PEPCK-c (setting [2]) and in the data set with PEPCK-c (setting [3]) were 145 % UTC and 117 % UTC, respectively. Also, the “Follistatin (% UTC)” value came to 130 % UTC with follistatin (setting [2]) and 118 % UTC in the data set on follistatin (setting [3]).

As to “328114 (antisense eA*eA*eT*e[5mC]*eT*e[5mC]*eA*eT*eT*eT*eT*e[5mC]*eA*eT*eA*e[5mC]*eT*eT*eG*e[5mC]*eA) [compound 328114]”, the “PEPCKc mRNA expression” value in the data set on PEPCK-c worked out at 41. Further, in the data set with follistatin, the “Follistatin mRNA expression” value came to 81.

Turning to “327900 (antisense e[5mC]*eT*eG*e[5mC]*e[5mC]*eT*eG*eT*e[5mC]*eT*eG*eT*eG*e[5mC]*e[5mC]*eT*eG*e[5mC]*eT*eG*eT) [compound 327900]”, the “PEPCKc mRNA” value with PEPCK-c (setting [1]) stood at 88. Also, in the data set with follistatin (setting [1]), the “Follistatin mRNA” value is given as 111.

For the substance “340927 (antisense eT*eG*eA*eG*e[5mC]*dT*dA*d[5mC]*dA*dG*dT*dG*d[5mC]*dT*dT*e[5mC]*eA*eT*e[5mC]*eT*e[5mC]*eA) [compound 340927]”, the “PEPCK-c (% UTC)” value in the data set on PEPCK-c (setting [4]) came to 87 % UTC; in the data set with PEPCK-c (setting [5]), 103 % UTC. The “Follistatin (% UTC)” value with follistatin (setting [4]) was found to be 111 % UTC; in the data set with follistatin (setting [5]), 128 % UTC.

Regarding “327934 (antisense eG*eG*eT*eA*e[5mC]*eA*eA*eT*e[5mC]*eA*eA*e[5mC]*eG*eG*eT*e[5mC]*eG*eA*eT*eG*eG*eT) [compound 327934]”, the “PEPCK-c (% UTC)” value was found to be 99 % UTC in the data set on PEPCK-c (setting [4]) and 105 % UTC in the data set with PEPCK-c (setting [5]). The “Follistatin (% UTC)” value in the data set on follistatin (setting [4]) came out at 140 % UTC; with follistatin (setting [5]) it was 103 % UTC.

For the substance “327916 (antisense eT*eG*eG*e[5mC]*eA*eT*eT*e[5mC]*eA*e[5mC]*e[5mC]*eG*e[5mC]*eG*eT*eG*e[5mC]*e[5mC]*eT*eT*eA*eA) [compound 327916]”, the “PEPCKc mRNA expression” value in the data set on PEPCK-c was 88. Further, in the data set with PEPCK-c (setting [1]), the “PEPCKc mRNA” value was 88. Also, the “Follistatin mRNA expression” value with follistatin is on record as 98. For the same substance, the “Follistatin mRNA” value with follistatin (setting [1]) stood at 108.
